Key:
[1] = target: T1, specific uterine reception of progesterone (progesterone receptor, uterus cytosol) (Oryctolagus cuniculus, UniProt P06186); experiment: Progestomimetic activity: hormonal receptor method, displacement of tritiated 17,21-dimethyl-19-nor-Δ4,9-pregnadiene-3,20-dione in uterus cytosol; assay type: binding, rabbit; details: for affinity for uterine progesterone receptor compared with progesterone (in words): conclusion from Table VI; for ARL (relative affinity of the test product): progesterone = 100, from CP and CX (concentrations inhibiting by 50% the fixation of tritiated product R), immature rabbit uterus cytosol, 0° C., 2 hours
T1 construct: the uterus was removed and homogenized in a buffered solution; from tissue; host or cells: uterus cytosol (105,000 g supernatant) of estradiol-primed immature rabbits
T1 sequence (P06186 1-930): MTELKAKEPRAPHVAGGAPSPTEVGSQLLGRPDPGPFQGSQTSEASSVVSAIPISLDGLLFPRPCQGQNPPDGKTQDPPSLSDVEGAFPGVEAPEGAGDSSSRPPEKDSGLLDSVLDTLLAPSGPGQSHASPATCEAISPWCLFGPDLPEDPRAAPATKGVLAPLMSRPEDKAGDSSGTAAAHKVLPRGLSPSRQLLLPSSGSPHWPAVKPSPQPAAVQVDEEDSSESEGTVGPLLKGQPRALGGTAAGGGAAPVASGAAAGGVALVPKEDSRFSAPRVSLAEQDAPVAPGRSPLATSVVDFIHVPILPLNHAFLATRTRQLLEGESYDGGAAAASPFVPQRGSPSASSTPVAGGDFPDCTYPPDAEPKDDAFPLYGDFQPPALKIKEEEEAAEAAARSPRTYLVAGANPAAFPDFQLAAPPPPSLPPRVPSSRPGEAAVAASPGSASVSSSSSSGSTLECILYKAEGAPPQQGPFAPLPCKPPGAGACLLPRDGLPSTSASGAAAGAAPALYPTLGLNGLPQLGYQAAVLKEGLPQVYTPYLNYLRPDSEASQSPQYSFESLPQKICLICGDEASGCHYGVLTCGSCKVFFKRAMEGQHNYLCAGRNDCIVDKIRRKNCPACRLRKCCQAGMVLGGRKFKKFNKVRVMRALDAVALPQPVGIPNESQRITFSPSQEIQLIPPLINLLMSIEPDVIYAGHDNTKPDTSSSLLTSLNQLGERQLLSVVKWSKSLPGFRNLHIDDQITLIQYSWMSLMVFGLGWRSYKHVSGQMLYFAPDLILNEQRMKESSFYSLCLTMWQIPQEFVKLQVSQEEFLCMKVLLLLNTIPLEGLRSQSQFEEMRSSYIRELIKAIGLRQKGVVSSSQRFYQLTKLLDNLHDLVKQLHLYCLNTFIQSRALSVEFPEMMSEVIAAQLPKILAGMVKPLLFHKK
Experimental: The progestomimetic activity was determined for 11β-vinyl-17α-methyl-17β-acetyl-Δ^4,9 -estradiene-3-one [product A], 11β-vinyl-17α-acetoxy-17β-acetyl-Δ^4,9 -estradiene-3-one [product B] and 11β-vinyl-17α-ethynyl-Δ^4,9 -estradiene-17α-ol-3-one [product C] was determined by the hormonal receptor method of Raynaud et al [J. Ster. Biochem., Vol. 6 (1975), p-615-622 and Physiology and Genetics of Reproduction, part A (1975), p. 143-160]. Immature rabbits received subcutaneously 25γ of estradiol and 5 days later, the animals were sacrificed and the uterus was removed and homogenized in a buffered solution of 10 mm of tromethamine, 0.25 M of saccharose and a pH of 7.4 with hydrochloric acid. The homogenate was centrifuged at 105,000 g per hour and the surnageant or cytosol was adjusted to a dilution of 1/50 (weight/volume). […] The radioactivity of the tritiated product R was determined after 2 hours by the technique of adsorption on carbon-dextran (1.25-0.625%). The curves representing the percentage of tritiated product R as a function of the log of the concentration, of cold product R, of progesterone or the test products and the I50 straight line parallel to the axis of the abcisses and ordinates were plotted. [formula] B/T max. is the percentage of tied tritiated product R when the product is not added and B/T min. is the percentage of tied tritiated product R when the maximum amount of cold product R is added. The intersections of these I50 straight lines and the curves permit the determination of the values: CP - concentration of cold progesterone which inhibits by 50% the fixation of the tritiated product R and CX-concentration of test product which inhibits by 50% the fixation of tritiated product R. The relative affinity of the test product (ARL) was determined by the formula [formula] and the results are reported in Table VI.

[2] = target: T2, prostatic androgenic reception of testosterone (androgen receptor, prostate cytosol) (Rattus norvegicus, UniProt P15207); experiment: Androgenic activity: hormonal receptor method, displacement of tritiated 17α-methyl-Δ4,9,11-estratriene-17β-ol-3-one in prostate cytosol; assay type: binding
T2 construct: The prostate was recovered from male rats castrated 24 hours earlier and was homogenized; from tissue; host or cells: prostate cytosol (105,000 g supernatant) of male rats castrated 24 hours earlier
T2 sequence (P15207 1-902): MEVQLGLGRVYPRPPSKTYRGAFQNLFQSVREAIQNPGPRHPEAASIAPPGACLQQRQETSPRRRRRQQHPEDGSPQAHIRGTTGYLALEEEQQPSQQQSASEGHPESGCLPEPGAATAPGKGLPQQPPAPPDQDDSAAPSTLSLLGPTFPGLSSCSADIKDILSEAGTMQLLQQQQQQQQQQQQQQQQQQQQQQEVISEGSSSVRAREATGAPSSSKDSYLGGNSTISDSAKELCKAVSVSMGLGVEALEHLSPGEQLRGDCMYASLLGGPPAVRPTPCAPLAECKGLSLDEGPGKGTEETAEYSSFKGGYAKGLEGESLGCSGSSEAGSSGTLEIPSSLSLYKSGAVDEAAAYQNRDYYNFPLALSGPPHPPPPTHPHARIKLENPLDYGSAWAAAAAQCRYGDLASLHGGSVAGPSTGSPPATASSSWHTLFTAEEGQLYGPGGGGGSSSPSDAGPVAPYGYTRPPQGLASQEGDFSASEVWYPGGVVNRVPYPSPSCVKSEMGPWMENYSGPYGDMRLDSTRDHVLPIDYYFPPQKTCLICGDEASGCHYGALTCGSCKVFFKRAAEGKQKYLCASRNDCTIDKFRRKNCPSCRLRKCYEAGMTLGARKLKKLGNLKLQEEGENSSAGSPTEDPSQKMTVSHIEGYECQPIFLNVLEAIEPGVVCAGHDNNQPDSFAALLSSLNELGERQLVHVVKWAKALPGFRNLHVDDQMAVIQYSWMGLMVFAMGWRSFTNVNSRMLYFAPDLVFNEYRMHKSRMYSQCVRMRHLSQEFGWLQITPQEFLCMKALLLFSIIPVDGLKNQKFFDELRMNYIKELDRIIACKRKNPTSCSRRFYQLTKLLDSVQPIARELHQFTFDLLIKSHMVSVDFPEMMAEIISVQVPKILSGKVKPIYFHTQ
Experimental: This test also used the method of Raynaud et al discussed above. The prostate was recovered from male rats castrated 24 hours earlier and was homogenized in a buffer containing 10 mm of tromethamine and 0.25 M of saccharose and sufficient hydrochloric acid for a pH of 7.4. The homogenate was centrifuged at 105,000 g for one hour and the surnageant liquid or cytosol was adjusted to a dilution of 1/5 (weight/volume).
The radioactivity of the tied tritiated product was determined after 2 hours by absorption technique on carbon-dextran (1.25%-0.625%). […] [formula] were ploted. B/T max. is the percentage of tied tritiated product R when the product is not added and B/T min. is the percentage of tied tritiated product R when the maximum amount of cold product R is added.

Question: `C=C[C@H]1C[C@@]2(C)[C@@H](CC[C@]2(C)C(C)=O)[C@@H]2CCC3=CC(=O)CCC3=C21` [Product A, 11β-vinyl-17α-methyl-17β-acetyl-Δ^4,9-estradiene-3-one] was tested. Which “affinity for uterine progesterone receptor compared with progesterone (in words)” value (“affinity … compared with progesterone (in words)” below) [1] did it give?
Answer: greater affinity for specific uterine reception of progesterone than progesterone

Question: What about the “ARL (relative affinity of the test product)” value [1] of the same compound?
Answer: 160

Question: How did the “affinity … compared with progesterone (in words)” value [1] turn out when `C=C[C@H]1C[C@@]2(C)[C@@H](CC[C@]2(OC(C)=O)C(C)=O)[C@@H]2CCC3=CC(=O)CCC3=C21` [Product B, 11β-vinyl-17α-acetoxy-17β-acetyl-Δ^4,9-estradiene-3-one] was run?
Answer: greater affinity for specific uterine reception of progesterone than progesterone

Question: What about the “ARL (relative affinity of the test product)” value [1] of the same compound?
Answer: 120

Question: For `C#C[C@]1(O)CC[C@H]2[C@@H]3CCC4=CC(=O)CCC4=C3[C@@H](C=C)C[C@@]21C` [Product C, 11β-vinyl-17α-ethynyl-Δ^4,9-estradiene-17β-ol-3-one], which “affinity … compared with progesterone (in words)” value [1] is on record?
Answer: greater affinity for specific uterine reception of progesterone than progesterone

Question: What about the “ARL (relative affinity of the test product)” value [1] of the same compound?
Answer: 150

Question: `C=C(C)[C@H]1C[C@@]2(C)[C@@H](CC[C@]2(C)O)[C@@H]2CCC3=CC(=O)CCC3=C12` [Product D, 11β-isopropenyl-17α-methyl-Δ^4,9-estradiene-17β-ol-3-one] was tested. Which “affinity for prostatic androgen receptor compared with testosterone (in words)” value ([2]; conclusion from Table VII) did it give?
Answer: affinity on the order of that of testosterone

Question: And the “ARL (relative affinity of the test product)” value ([2]; testosterone = 100, from CT and CX (concentrations inhibiting by 50% the fixation of tritiated product R), castrated rat prostate cytosol, 0° C., 2 hours)?
Answer: 80

Source: patent US4233296A, “11β-Substituted-Δ^4,9 -estradienes” (Roussel Uclaf, priority 1977, dated 1980)
